Assay results taken from patent US20260130395A1, “Water Dispersible Botanical Compositions” (Aquila Black Limited, priority 2021, published 2026).

Legend:
[1] = Stability of cannabinoid entourage and Vitamin E components of the powder concentrate by LCMSMS; assay type: physicochemical; settings: powder stored at 21-25° C.
Protocol: At each time period, 0.05 g of powder was dissolved in 10 ml-15 of ethanol, diluted to fall within the analytical range, and injected into the LCMSMS for analysis.

[2] = Stability of cannabinoid compounds and Vitamin E components in Beverage 2 (AB Red) by LCMSMS; assay type: physicochemical

With CCCCCc1cc(O)c2c(c1)OC(C)(CCC=C(C)C)C=C2 (stereo not drawn) [CBC, cannabichromene] the “Stability of Plant-Derived Cannabinoid Compounds in Powder Concentrate” value (shortened to “Stability … in Powder Concentrate”) ([1]; 0 days) was 0.070 mg/g powder, the “Stability … in Powder Concentrate” value ([1]; 1 days) was 0.072 mg/g powder and the “Stability … in Powder Concentrate” value ([1]; 2 days) was 0.071 mg/g powder. The “Stability … in Powder Concentrate” value ([1]; 3 days) was 0.073 mg/g powder, the “Stability … in Powder Concentrate” value ([1]; 5 days) was 0.070 mg/g powder and the “Stability … in Powder Concentrate” value ([1]; 8 days) was 0.071 mg/g powder. For the same compound, the “Stability … in Powder Concentrate” value ([1]; 9 days) was 0.068 mg/g powder, the “Stability … in Powder Concentrate” value ([1]; 10 days) was 0.071 mg/g powder and the “Stability … in Powder Concentrate” value ([1]; 11 days) was 0.071 mg/g powder. The “Stability … in Powder Concentrate” value ([1]; 12 days) was 0.069 mg/g powder, the “Stability … in Powder Concentrate” value ([1]; 15 days) was 0.073 mg/g powder and the “Stability … in Powder Concentrate” value ([1]; 16 days) was 0.073 mg/g powder. For the same compound, the “Stability … in Powder Concentrate” value ([1]; 17 days) was 0.070 mg/g powder, the “Stability … in Powder Concentrate” value ([1]; 18 days) was 0.072 mg/g powder and the “Stability … in Powder Concentrate” value ([1]; 19 days) was 0.070 mg/g powder. For the same compound, the “Stability … in Powder Concentrate” value ([1]; 22 days) was 0.071 mg/g powder, the “Stability … in Powder Concentrate” value ([1]; 23 days) was 0.069 mg/g powder and the “Stability … in Powder Concentrate” value ([1]; 24 days) was 0.068 mg/g powder. The “Stability … in Powder Concentrate” value ([1]; 25 days) was 0.072 mg/g powder, the “Stability … in Powder Concentrate” value ([1]; 26 days) was 0.071 mg/g powder and the “Stability … in Powder Concentrate” value ([1]; 29 days) was 0.069 mg/g powder. The “Stability … in Powder Concentrate” value ([1]; 30 days) was 0.072 mg/g powder, the “Stability … in Powder Concentrate” value ([1]; 60 days) was 0.068 mg/g powder and the “Stability … in Powder Concentrate” value ([1]; 90 days) was 0.068 mg/g powder. For the same compound, the “Stability … in Powder Concentrate” value ([1]; 120 days) was 0.072 mg/g powder, the “Stability … in Powder Concentrate” value ([1]; 150 days) was 0.072 mg/g powder and the “Stability … in Powder Concentrate” value ([1]; 180 days) was 0.071 mg/g powder. The “Stability … in Powder Concentrate” value ([1]; 210 days) was 0.072 mg/g powder, the “Stability … in Powder Concentrate” value ([1]; 240 days) was 0.068 mg/g powder and the “Stability … in Powder Concentrate” value ([1]; 270 days) was 0.072 mg/g powder. For the same compound, the “Stability … in Powder Concentrate” value ([1]; 300 days) was 0.071 mg/g powder, the “Stability … in Powder Concentrate” value ([1]; 330 days) was 0.069 mg/g powder and the “Stability … in Powder Concentrate” value ([1]; 360 days) was 0.068 mg/g powder. The “Stability … in Powder Concentrate” value ([1]; 390 days) was 0.068 mg/g powder, the “Stability … in Powder Concentrate” value ([1]; 420 days) was 0.069 mg/g powder and the “Stability … in Powder Concentrate” value ([1]; 450 days) was 0.073 mg/g powder. The “Stability … in Powder Concentrate” value ([1]; 480 days) was 0.071 mg/g powder, the “Stability … in Powder Concentrate” value ([1]; 510 days) was 0.069 mg/g powder and the “Stability … in Powder Concentrate” value ([1]; 540 days) was 0.070 mg/g powder. The “Stability … in Powder Concentrate” value ([1]; 570 days) was 0.069 mg/g powder, the “Stability of Plant-Derived Cannabinoid Compounds in AB Red” value (shortened to “Stability … in AB Red”) ([2]; stored at 8° C., 0 days) was 0.290 µg/mL and the “Stability … in AB Red” value ([2]; stored at 8° C., 1 days) was 0.289 µg/mL. For the same compound, the “Stability … in AB Red” value ([2]; stored at 8° C., 2 days) was 0.292 µg/mL, the “Stability … in AB Red” value ([2]; stored at 8° C., 3 days) was 0.285 µg/mL and the “Stability … in AB Red” value ([2]; stored at 8° C., 5 days) was 0.286 µg/mL. The “Stability … in AB Red” value ([2]; stored at 8° C., 8 days) was 0.286 µg/mL, the “Stability … in AB Red” value ([2]; stored at 8° C., 9 days) was 0.288 µg/mL and the “Stability … in AB Red” value ([2]; stored at 8° C., 10 days) was 0.288 µg/mL. The “Stability … in AB Red” value ([2]; stored at 8° C., 11 days) was 0.284 µg/mL, the “Stability … in AB Red” value ([2]; stored at 8° C., 12 days) was 0.285 µg/mL and the “Stability … in AB Red” value ([2]; stored at 8° C., 15 days) was 0.292 µg/mL. For the same compound, the “Stability … in AB Red” value ([2]; stored at 8° C., 16 days) was 0.283 µg/mL, the “Stability … in AB Red” value ([2]; stored at 8° C., 17 days) was 0.282 µg/mL and the “Stability … in AB Red” value ([2]; stored at 8° C., 18 days) was 0.289 µg/mL. For the same compound, the “Stability … in AB Red” value ([2]; stored at 8° C., 19 days) was 0.287 µg/mL, the “Stability … in AB Red” value ([2]; stored at 8° C., 22 days) was 0.287 µg/mL and the “Stability … in AB Red” value ([2]; stored at 8° C., 23 days) was 0.287 µg/mL. The “Stability … in AB Red” value ([2]; stored at 8° C., 24 days) was 0.291 µg/mL, the “Stability … in AB Red” value ([2]; stored at 8° C., 25 days) was 0.287 µg/mL and the “Stability … in AB Red” value ([2]; stored at 8° C., 26 days) was 0.287 µg/mL. For the same compound, the “Stability … in AB Red” value ([2]; stored at 8° C., 29 days) was 0.284 µg/mL, the “Stability … in AB Red” value ([2]; stored at 8° C., 30 days) was 0.282 µg/mL and the “Stability … in AB Red” value ([2]; stored at 8° C., 60 days) was 0.278 µg/mL. For the same compound, the “Stability … in AB Red” value ([2]; stored at 8° C., 90 days) was 0.287 µg/mL, the “Stability … in AB Red” value ([2]; stored at 8° C., 120 days) was 0.289 µg/mL and the “Stability … in AB Red” value ([2]; stored at 8° C., 150 days) was 0.281 µg/mL. For the same compound, the “Stability … in AB Red” value ([2]; stored at 8° C., 180 days) was 0.285 µg/mL, the “Stability … in AB Red” value ([2]; stored at 8° C., 210 days) was 0.282 µg/mL and the “Stability … in AB Red” value ([2]; stored at 8° C., 240 days) was 0.280 µg/mL. The “Stability … in AB Red” value ([2]; stored at 8° C., 270 days) was 0.284 µg/mL, the “Stability … in AB Red” value ([2]; stored at 8° C., 300 days) was 0.280 µg/mL and the “Stability … in AB Red” value ([2]; stored at 8° C., 330 days) was 0.278 µg/mL. For the same compound, the “Stability … in AB Red” value ([2]; stored at 8° C., 360 days) was 0.282 µg/mL, the “Stability … in AB Red” value ([2]; stored at 8° C., 390 days) was 0.282 µg/mL and the “Stability … in AB Red” value ([2]; stored at 8° C., 420 days) was 0.277 µg/mL. For the same compound, the “Stability … in AB Red” value ([2]; stored at 8° C., 450 days) was 0.282 µg/mL, the “Stability … in AB Red” value ([2]; stored at 8° C., 480 days) was 0.274 µg/mL and the “Stability … in AB Red” value ([2]; stored at 8° C., 510 days) was 0.267 µg/mL. For the same compound, the “Stability … in AB Red” value ([2]; stored at 8° C., 540 days) was 0.271 µg/mL, the “Stability … in AB Red” value ([2]; stored at 8° C., 570 days) was 0.266 µg/mL and the “Stability … in AB Red” value ([2]; stored at 21-25° C., 0 days) was 0.29 µg/mL. For the same compound, the “Stability … in AB Red” value ([2]; stored at 21-25° C., 1 days) was 0.28 µg/mL, the “Stability … in AB Red” value ([2]; stored at 21-25° C., 2 days) was 0.28 µg/mL and the “Stability … in AB Red” value ([2]; stored at 21-25° C., 3 days) was 0.29 µg/mL. The “Stability … in AB Red” value ([2]; stored at 21-25° C., 5 days) was 0.28 µg/mL, the “Stability … in AB Red” value ([2]; stored at 21-25° C., 8 days) was 0.28 µg/mL and the “Stability … in AB Red” value ([2]; stored at 21-25° C., 9 days) was 0.28 µg/mL. For the same compound, the “Stability … in AB Red” value ([2]; stored at 21-25° C., 10 days) was 0.29 µg/mL, the “Stability … in AB Red” value ([2]; stored at 21-25° C., 11 days) was 0.29 µg/mL and the “Stability … in AB Red” value ([2]; stored at 21-25° C., 12 days) was 0.28 µg/mL. For the same compound, the “Stability … in AB Red” value ([2]; stored at 21-25° C., 15 days) was 0.28 µg/mL, the “Stability … in AB Red” value ([2]; stored at 21-25° C., 16 days) was 0.28 µg/mL and the “Stability … in AB Red” value ([2]; stored at 21-25° C., 17 days) was 0.28 µg/mL. For the same compound, the “Stability … in AB Red” value ([2]; stored at 21-25° C., 18 days) was 0.29 µg/mL, the “Stability … in AB Red” value ([2]; stored at 21-25° C., 19 days) was 0.29 µg/mL and the “Stability … in AB Red” value ([2]; stored at 21-25° C., 22 days) was 0.29 µg/mL. For the same compound, the “Stability … in AB Red” value ([2]; stored at 21-25° C., 23 days) was 0.28 µg/mL, the “Stability … in AB Red” value ([2]; stored at 21-25° C., 24 days) was 0.29 µg/mL and the “Stability … in AB Red” value ([2]; stored at 21-25° C., 25 days) was 0.28 µg/mL. For the same compound, the “Stability … in AB Red” value ([2]; stored at 21-25° C., 26 days) was 0.28 µg/mL, the “Stability … in AB Red” value ([2]; stored at 21-25° C., 29 days) was 0.29 µg/mL and the “Stability … in AB Red” value ([2]; stored at 21-25° C., 30 days) was 0.29 µg/mL. For the same compound, the “Stability … in AB Red” value ([2]; stored at 21-25° C., 60 days) was 0.29 µg/mL, the “Stability … in AB Red” value ([2]; stored at 21-25° C., 90 days) was 0.28 µg/mL and the “Stability … in AB Red” value ([2]; stored at 21-25° C., 120 days) was 0.29 µg/mL. For the same compound, the “Stability … in AB Red” value ([2]; stored at 21-25° C., 150 days) was 0.29 µg/mL, the “Stability … in AB Red” value ([2]; stored at 21-25° C., 180 days) was 0.28 µg/mL and the “Stability … in AB Red” value ([2]; stored at 21-25° C., 210 days) was 0.29 µg/mL. For the same compound, the “Stability … in AB Red” value ([2]; stored at 21-25° C., 240 days) was 0.28 µg/mL, the “Stability … in AB Red” value ([2]; stored at 21-25° C., 270 days) was 0.29 µg/mL and the “Stability … in AB Red” value ([2]; stored at 21-25° C., 300 days) was 0.29 µg/mL. The “Stability … in AB Red” value ([2]; stored at 21-25° C., 330 days) was 0.29 µg/mL, the “Stability … in AB Red” value ([2]; stored at 21-25° C., 360 days) was 0.28 µg/mL and the “Stability … in AB Red” value ([2]; stored at 21-25° C., 390 days) was 0.28 µg/mL. For the same compound, the “Stability … in AB Red” value ([2]; stored at 21-25° C., 420 days) was 0.28 µg/mL, the “Stability … in AB Red” value ([2]; stored at 21-25° C., 450 days) was 0.28 µg/mL and the “Stability … in AB Red” value ([2]; stored at 21-25° C., 480 days) was 0.28 µg/mL. For the same compound, the “Stability … in AB Red” value ([2]; stored at 21-25° C., 510 days) was 0.27 µg/mL, the “Stability … in AB Red” value ([2]; stored at 21-25° C., 540 days) was 0.28 µg/mL and the “Stability … in AB Red” value ([2]; stored at 21-25° C., 570 days) was 0.27 µg/mL.
